SMILES strings stand for the structures. Read-outs that look alike come from different tables or passages of the source.

Results on four molecules are retold here after patent publication US20230265151A1, “GIP/GLP1 CO-AGONIST COMPOUNDS” (priority 2020, published 2023).

Type in all cases: cell-based
One experiment addresses T1, hGIPR (Homo sapiens, UniProt P48546).
T1 construct: expressed in transfected cells
T1 sequence (P48546 22-466): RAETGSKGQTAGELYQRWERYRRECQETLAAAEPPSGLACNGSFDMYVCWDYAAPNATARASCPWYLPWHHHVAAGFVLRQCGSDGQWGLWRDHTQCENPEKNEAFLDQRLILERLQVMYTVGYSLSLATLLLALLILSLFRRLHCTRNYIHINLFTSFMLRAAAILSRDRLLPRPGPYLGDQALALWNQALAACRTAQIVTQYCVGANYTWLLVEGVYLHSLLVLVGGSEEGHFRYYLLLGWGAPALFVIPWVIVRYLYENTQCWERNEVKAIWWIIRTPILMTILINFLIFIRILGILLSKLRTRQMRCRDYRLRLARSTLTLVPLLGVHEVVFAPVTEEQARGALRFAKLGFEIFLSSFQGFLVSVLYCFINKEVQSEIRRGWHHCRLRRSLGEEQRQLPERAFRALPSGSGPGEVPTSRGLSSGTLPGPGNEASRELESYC
The experiment in a line: Functional cAMP formation (HTRF) in HEK-293 clonal cells expressing hGIPR, 0.1% bovine casein, without or with 1.0% human serum albumin. The conditions noted are these: for Emax: percent of maximal response to GIP(1-42)NH2; for EC50: cAMP, 0.1% bovine casein (no human serum albumin), geometric mean. The procedure, abridged: (§1)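 Cells were stimulated with peptide for 30 min at 37° C, then intracellular cAMP was measured by competitive HTRF (665/620 nm ratio) and converted to nM using a cAMP standard curve. Relative EC50 and Emax came from four-parameter logistic fits of percent maximal response against peptide concentration.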

The target in the next experiment is T2, hGCGR (Homo sapiens, UniProt P47871).
T2 construct: expressed in transfected cells
T2 sequence (P47871 26-477): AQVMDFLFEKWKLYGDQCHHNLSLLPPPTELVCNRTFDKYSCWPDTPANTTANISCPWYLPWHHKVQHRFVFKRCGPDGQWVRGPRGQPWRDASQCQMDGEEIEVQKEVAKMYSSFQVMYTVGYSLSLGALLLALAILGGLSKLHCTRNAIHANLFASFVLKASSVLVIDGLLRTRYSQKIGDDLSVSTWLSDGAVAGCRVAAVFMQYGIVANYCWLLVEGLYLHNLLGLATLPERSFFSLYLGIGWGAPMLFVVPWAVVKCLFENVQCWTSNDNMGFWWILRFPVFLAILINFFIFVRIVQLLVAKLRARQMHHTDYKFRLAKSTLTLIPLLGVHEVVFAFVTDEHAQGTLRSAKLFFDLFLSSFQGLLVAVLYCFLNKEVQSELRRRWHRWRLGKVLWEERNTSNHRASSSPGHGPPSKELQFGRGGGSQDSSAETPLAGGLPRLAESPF
Briefly: Functional cAMP formation (HTRF) in HEK-293 clonal cells expressing hGCGR, 0.1% bovine casein, without or with 1.0% human serum albumin. The procedure, abridged:
as §1

For a further experiment, the target named is hGLP-1R (Homo sapiens, UniProt P43220). Briefly: Functional cAMP formation (HTRF) in HEK-293 clonal cells expressing hGLP-1R, 0.1% bovine casein, without or with 1.0% human serum albumin. Also on record: expressed in transfected cells. The note with it: for Emax: percent of maximal response to GLP-1(7-36)NH2; for EC50: cAMP. In outline:
as §1

[1] abbreviates: HEK293, cAMP, 37° C., 0.1% bovine casein, arithmetic mean, read-out: hGIPR Emax, % ± SEM.
[2] abbreviates: 37° C., read-out: hGIPR EC50, nM (SEM, n).
The mark [3] stands for this setting: 0.1% bovine casein and 1.0% human serum albumin, 37° C., geometric mean, read-out: hGCGR EC50, nM (SEM, n).
Where [4] appears, read: cAMP, 37° C., 0.1% bovine casein (no human serum albumin), geometric mean, read-out: hGCGR EC50, nM (SEM, n).
[5] abbreviates: 37° C., 0.1% bovine casein (no human serum albumin), geometric mean, read-out: hGLP-1R EC50, nM (SEM, n).

Chain of hGLP-1R (P43220 24-463): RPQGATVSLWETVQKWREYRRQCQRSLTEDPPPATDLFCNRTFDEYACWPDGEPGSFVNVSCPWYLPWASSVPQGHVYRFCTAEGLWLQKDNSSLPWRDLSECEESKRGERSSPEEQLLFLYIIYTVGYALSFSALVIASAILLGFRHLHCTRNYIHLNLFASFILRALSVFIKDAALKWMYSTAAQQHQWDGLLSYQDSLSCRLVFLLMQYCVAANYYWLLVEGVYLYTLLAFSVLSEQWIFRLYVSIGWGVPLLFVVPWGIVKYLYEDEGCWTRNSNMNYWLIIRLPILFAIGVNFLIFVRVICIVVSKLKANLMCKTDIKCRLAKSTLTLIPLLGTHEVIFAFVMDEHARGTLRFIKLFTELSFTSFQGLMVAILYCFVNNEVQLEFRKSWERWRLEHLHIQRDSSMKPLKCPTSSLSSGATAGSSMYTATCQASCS

For `CC[C@H](C)[C@H](NC(=O)[C@H](CCCN)NC(=O)[C@H](CC(=O)O)NC(=O)[C@H](CC(C)C)NC(=O)[C@](C)(CC(C)C)NC(=O)[C@@H](NC(=O)[C@H](CO)NC(=O)[C@H](Cc1ccc2ccccc2c1)NC(=O)[C@H](CC(=O)O)NC(=O)[C@H](CO)NC(=O)[C@@H](NC(=O)[C@](C)(Cc1ccccc1F)NC(=O)[C@@H](NC(=O)CNC(=O)[C@H](CCC(=O)O)NC(=O)C(C)(C)NC(=O)[C@@H](N)Cc1ccc(O)cc1)[C@@H](C)O)[C@@H](C)O)[C@@H](C)CC)C(=O)N[C@@H](C)C(=O)N[C@@H](CCC(N)=O)C(=O)NC(C)(C)C(=O)N[C@@H](CCCCNC(=O)COCCOCCNC(=O)COCCOCCNC(=O)CCCCCCCCCCCCC(=O)O)C(=O)N[C@@H](Cc1ccccc1)C(=O)N[C@H](C(=O)N[C@H](CCC(=O)O)C(=O)N[C@@](C)(Cc1ccc(O)cc1)C(=O)N[C@@H](CC(C)C)C(=O)N[C@H](C(=O)N[C@@H](CCC(=O)O)C(=O)NCC(=O)NCC(=O)N1CCC[C@H]1C(=O)N[C@@H](CO)C(=O)N[C@@H](CO)C(=O)NCC(=O)N[C@@H](C)C(=O)N1CCC[C@H]1C(=O)N1CCC[C@H]1C(=O)N1CCC[C@H]1C(=O)N[C@@H](CO)C(=O)N[C@@H](CCCCNC(=O)COCCOCCNC(=O)COCCOCCNC(=O)CCCCCCCCCCCCC(=O)O)C(N)=O)[C@@H](C)CC)[C@@H](C)CC` [Example 258], the Emax on hGIPR (setting [1]) was determined as 90.3%; on hGLP-1R (HEK293, cAMP, 37° C., 0.1% bovine casein, arithmetic mean, read-out: hGLP-1R Emax, % ± SEM), 94.9%. Also, the figures for the EC50 at hGIPR (setting [2]), on hGCGR (setting [3]) and at hGCGR (setting [4]) were 0.0473 nM, greater than 9950 nM and greater than 9950 nM, respectively.
Consider `CC[C@H](C)[C@H](NC(=O)[C@H](CC(C)C)NC(=O)[C@](C)(Cc1ccc(O)cc1)NC(=O)[C@H](CCCCNC(=O)COCCOCCNC(=O)COCCOCCNC(=O)CC[C@H](NC(=O)CCCCCCCCCCCCC(=O)O)C(=O)O)NC(=O)[C@@H](NC(=O)[C@H](Cc1ccccc1)NC(=O)[C@H](CCC(=O)O)NC(=O)C(C)(C)NC(=O)[C@H](CCC(N)=O)NC(=O)[C@H](C)NC(=O)[C@H](CCC(N)=O)NC(=O)[C@H](CCCN)NC(=O)[C@H](CC(=O)O)NC(=O)[C@H](CC(C)C)NC(=O)[C@](C)(CC(C)C)NC(=O)[C@@H](NC(=O)C(C)(C)NC(=O)[C@H](Cc1ccc(O)cc1)NC(=O)[C@H](CC(=O)O)NC(=O)[C@H](CO)NC(=O)[C@@H](NC(=O)[C@](C)(Cc1ccccc1F)NC(=O)[C@@H](NC(=O)CNC(=O)[C@H](CCC(=O)O)NC(=O)C(C)(C)NC(=O)[C@@H](N)Cc1ccc(O)cc1)[C@@H](C)O)[C@@H](C)O)[C@@H](C)CC)[C@@H](C)CC)C(=O)N[C@@H](CCCCNC(=O)COCCOCCNC(=O)COCCOCCNC(=O)CC[C@H](NC(=O)CCCCCCCCCCCCC(=O)O)C(=O)O)C(=O)NCC(=O)NCC(=O)N1CCC[C@H]1C(=O)N[C@@H](CO)C(=O)N[C@@H](CO)C(=O)NCC(=O)N[C@@H](C)C(=O)N1CCC[C@H]1C(=O)N1CCC[C@H]1C(=O)N1CCC[C@H]1C(=O)N[C@@H](CO)C(N)=O` [Example 412], for which the Emax on hGIPR (HEK293, cAMP, 37° C., 0.1% bovine casein and 1.0% human serum albumin, read-out: hGIPR Emax, % ± SEM) amounted to 87.5%; at hGIPR (setting [1]) it was 95.4%. Besides, the EC50 on hGIPR (setting [2]) is 0.0108 nM; at hGCGR (setting [4]), greater than 9950 nM; at hGCGR (cAMP, 37° C., 0.1% bovine casein and 1.0% human serum albumin, geometric mean (SEM, n), read-out: hGCGR EC50, nM (SEM, n)), greater than 9950 nM; at hGLP-1R (setting [5]) it was 0.16 nM; at hGLP-1R (37° C., 0.1% bovine casein and 1.0% human serum albumin, geometric mean (SEM, n), read-out: hGLP-1R EC50, nM (SEM, n)), 18.3 nM.
Take `CC[C@H](C)[C@H](NC(=O)[C@H](CC(C)C)NC(=O)[C@](C)(Cc1ccc(O)cc1)NC(=O)[C@@H](CCC(=O)O)NC(=O)[C@@H](NC(=O)[C@H](Cc1ccccc1)NC(=O)[C@H](CCC(=O)O)NC(=O)C(C)(C)NC(=O)[C@H](CCC(N)=O)NC(=O)[C@H](C)NC(=O)[C@H](CCCCNC(=O)COCCOCCNC(=O)COCCOCCNC(=O)CC[C@H](NC(=O)CCCCCCCCCOc1ccc(C(=O)O)cc1)C(=O)O)NC(=O)[C@H](CCCN)NC(=O)[C@H](CC(=O)O)NC(=O)[C@H](CC(C)C)NC(=O)[C@](C)(CC(C)C)NC(=O)[C@@H](NC(=O)C(C)(C)NC(=O)[C@H](Cc1ccncc1)NC(=O)[C@H](CC(=O)O)NC(=O)[C@H](CO)NC(=O)[C@@H](NC(=O)[C@](C)(Cc1ccccc1F)NC(=O)[C@@H](NC(=O)CNC(=O)[C@H](CCC(=O)O)NC(=O)C(C)(C)NC(=O)[C@@H](N)Cc1ccc(O)cc1)[C@@H](C)O)[C@@H](C)O)[C@@H](C)CC)[C@@H](C)CC)C(=O)N[C@@H](CCCCNC(=O)COCCOCCNC(=O)COCCOCCNC(=O)CC[C@H](NC(=O)CCCCCCCCCOc1ccc(C(=O)O)cc1)C(=O)O)C(=O)NCC(=O)NCC(=O)N1CCC[C@H]1C(=O)N[C@@H](CO)C(=O)N[C@@H](CO)C(=O)NCC(=O)N[C@@H](C)C(=O)N1CCC[C@H]1C(=O)N1CCC[C@H]1C(=O)N1CCC[C@H]1C(=O)N[C@@H](CO)C(N)=O` [Example 244]: the Emax came to 89.5% at hGIPR (HEK293, read-out: hGIPR Emax, % ± SEM, 0.1% bovine casein and 1.0% human serum albumin, 37° C.); 96.3% on hGLP-1R (HEK293, read-out: hGLP-1R Emax, % ± SEM, 0.1% bovine casein and 1.0% human serum albumin, 37° C.). For the same molecule, the EC50 on hGIPR (hGIPR EC50, nM (SEM, n), incubated at 37° C.) was 0.0218 nM; on hGCGR (hGCGR EC50, nM (SEM, n), 0.1% bovine casein and 1.0% human serum albumin, 37° C., geometric mean), greater than 9950 nM; on hGCGR (hGCGR EC50, nM (SEM, n), cAMP, incubated at 37° C., 0.1% bovine casein (no human serum albumin), geometric mean), greater than 9950 nM; at hGLP-1R (hGLP-1R EC50, nM (SEM, n), incubated at 37° C., 0.1% bovine casein (no human serum albumin), geometric mean) it was 2.25 nM.
Take `CC[C@H](C)[C@H](NC(=O)[C@H](CCCN)NC(=O)[C@H](CC(=O)O)NC(=O)[C@H](CC(C)C)NC(=O)[C@](C)(CC(C)C)NC(=O)[C@@H](NC(=O)[C@](C)(CO)NC(=O)[C@@H](NC(=O)[C@H](CC(=O)O)NC(=O)[C@H](CO)NC(=O)[C@@H](NC(=O)[C@](C)(Cc1ccccc1F)NC(=O)[C@@H](NC(=O)CNC(=O)[C@H](CCC(=O)O)NC(=O)C(C)(C)NC(=O)[C@@H](N)Cc1ccc(O)cc1)[C@@H](C)O)[C@@H](C)O)C(C)C)[C@@H](C)CC)C(=O)N[C@@H](C)C(=O)N[C@@H](CCC(N)=O)C(=O)NC(C)(C)C(=O)N[C@@H](CCC(=O)O)C(=O)N[C@@H](Cc1ccccc1)C(=O)N[C@H](C(=O)N[C@@H](CCCCNC(=O)COCCOCCNC(=O)COCCOCCNC(=O)CC[C@H](NC(=O)CCCCCCCCCCCCC(=O)O)C(=O)O)C(=O)N[C@@](C)(Cc1ccc(O)cc1)C(=O)N[C@@H](CC(C)C)C(=O)N[C@H](C(=O)N[C@@H](CCCCNC(=O)COCCOCCNC(=O)COCCOCCNC(=O)CC[C@H](NC(=O)CCCCCCCCCCCCC(=O)O)C(=O)O)C(=O)NCC(=O)NCC(=O)N1CCC[C@H]1C(=O)N[C@@H](CO)C(=O)N[C@@H](CO)C(=O)NCC(=O)N[C@@H](C)C(=O)N1CCC[C@H]1C(=O)N1CCC[C@H]1C(=O)N1CCC[C@H]1C(=O)N[C@@H](CO)C(N)=O)[C@@H](C)CC)[C@@H](C)CC` [Example 305]: the Emax on hGIPR (HEK293, 0.1% bovine casein and 1.0% human serum albumin, 37° C., read-out: hGIPR Emax, % ± SEM) stood at 95.4%; at hGIPR (setting [1]), 105%; at hGLP-1R (HEK293, 0.1% bovine casein and 1.0% human serum albumin, 37° C., read-out: hGLP-1R Emax, % ± SEM), 125%. For the same molecule, the EC50 at hGIPR (setting [2]) is 0.0289 nM; at hGCGR (setting [3]), greater than 9950 nM; on hGCGR (setting [4]), greater than 9950 nM; at hGLP-1R (setting [5]), 0.629 nM.
